Test results from patent US8697629B2, “Modulation of intracellular signaling” (Angstrom Pharmaceuticals, Inc., priority 2010, dated 2014).

Columns and labels:
Type in all cases: cell-based
PKCalpha = PKCalpha phosphorylation in SKOV3 cells, immunoblot
Protocol: (§1) Cells were detached from their culture vessels by brief trypsinization, suspended in complete media and centrifuged at 250×g for 10 min at room temperature. The cell pellets were suspended in Dulbeco's phosphate buffered saline (DPBS) and re-centrifuged for a total of three washes. The cells were then re-suspended at 3.33E5/ml in 24 ml of either RPMI containing 0.5% BSA (Sigma Chem. Co. #A0336) (RPMI/BSA) or the conditioned media of growing NIH3T3 fibroblasts (10% FBS in DMEM) supplemented with 10 ng/ml vascular endothelial growth factor (VEGF) (CMN). The cells were then treated with or without 100 ug/ml soluble hyaluronic acid (HA; human umbilical, Calbiochem #385902) for 30 min at 37° C. under 5% CO2. Aliquots representing 2E6 cells were then plated into 10 cm culture dishes and A6 added to yield final concentrations of 0, 10, 100 and 1000 nM. The cells were cultured overnight (18 hr) at 37° C. under 5% CO2.
(§2) After 18 hr of treatment, the media were aspirated from the 10 cm dishes and saved. The plates were washed 3 times with 4 ml of ice-cold DPBS which were pooled with the reserved non-adherent cells. The non-adherent cells were centrifuged at 250×g for 10 min at 4° C., washed twice with cold DPBS, drained and lysed in 50 ul of cold RIPA buffer (ThermoScientific #89901) containing cocktails of broad spectrum phosphatase inhibitors (Calbiochem #524625; used at 2× final concentration) and protease inhibitors (Sigma #P8340) (RIPA/inh.). The 10 cm dishes were drained of remaining wash and the adherent cells lysed by scraping in 200 μL of cold RIPA/inh. For each test condition, the lysates of the non-adherent and adherent populations were combined, vortexed and then centrifuged at 14,000 rpm at 4° C. for 20 min. Aliquots of the cleared lysates were frozen at −80° C. immediately. A small aliquot was reserved for total protein analysis using a BCA Protein Assay Kit (Calbiochem #71285-3).
(§3) Samples representing 20 μg of total protein of each lysate were solubilized in the presence of 50 mM Tris pH 6.8, 10% glycerol, 2% SDS and 100 mM DTT for 5 min at 95° C. and then loaded onto 10-20% acrylamide gels (BioRad #345-0044, Tris-HCl, 1 mm, 26 well, 15 μL/well). Electrophoresis was performed using Laemli electrophoresis buffer (0.1% SDS, 25 mM Tris, 192 mM glycine) at 200 V, constant voltage, for one hour. Upon completion of electrophoresis, the proteins were transferred to Immun-Blot PVDF membranes (BioRad #162-0238) in ice-cold 20% methanol in 25 mM Tris, 192 mM glycine for 2 hr at 0.5 Amps, constant current/blotting apparatus. The membranes were then cut vertically between molecular weight markers and in half at the 64 kDa marker to generate pieces for screening of higher molecular weight proteins (e.g., FAK) and lower molecular weight proteins (e.g., MEK and GAPDH). […]

ERK 1/2 = ERK 1/2 phosphorylation (T202/Y204) in SKOV3 cells, immunoblot; details: basal media (RPMI/BSA)
Protocol: as §1, §2
Samples representing 20 μg of total protein of each lysate were solubilized in the presence of 50 mM Tris pH 6.8, 10% glycerol, 2% SDS and 100 mM DTT for 5 min at 95° C. and then loaded onto 10-20% acrylamide gels (BioRad #345-0044, Tris-HCl, 1 mm, 26 well, 15 μL/well). Electrophoresis was performed using Laemli electrophoresis buffer (0.1% SDS, 25 mM Tris, 192 mM glycine) at 200 V, constant voltage, for one hour. Upon completion of electrophoresis, the proteins were transferred to Immun-Blot PVDF membranes (BioRad #162-0238) in ice-cold 20% methanol in 25 mM Tris, 192 mM glycine for 2 hr at 0.5 Amps, constant current/blotting apparatus. The membranes were then cut vertically between molecular weight markers and in half at the 64 kDa marker to generate pieces for screening of higher molecular weight proteins (e.g., FAK) and lower molecular weight proteins (e.g., MEK and GAPDH). The blots were then blocked for a minimum of 4 hrs at room temperature in 3% bovine serum albumin (Sigma A0336) in 50 mM Tris, pH 7.4, 145 mM NaCl, 0.05% Tween-20 (TTBS) containing 0.05% sodium azide.
Upon completion of the primary antibody incubation, the blots were washed three times for 10 min in TTBS and then incubated with 1/25,000 dilutions of peroxidase-conjugated donkey anti-mouse IgG (Jackson ImmunoResearch #715-035-150) or peroxidase-conjugated donkey anti-rabbit IgG (Jackson ImmunoResearch #711-035-152) in TTBS containing 3% BSA for one hour at room temperature. […]

FAK = FAK phosphorylation in SKOV3 cells, immunoblot and densitometry; details: SKOV3, all conditions; Y397, Y576/577, Y925
Protocol: as §1, §2
as §3, with “apparatus.” for “apparatus. The membranes were then cut vertically between molecular weight markers and in half at the 64 kDa marker to generate pieces for screening of higher molecular weight proteins (e.g., FAK) and lower molecular weight proteins (e.g., MEK and GAPDH).”
(§4) The integrated densities (id) of the bands of interest were measured using Image J software (NIH). […]

MEK = MEK phosphorylation (S217/221) in SKOV3 cells, immunoblot and densitometry
Protocol: as §1, §2
as §3, with “apparatus.” for “apparatus. The membranes were then cut vertically between molecular weight markers and in half at the 64 kDa marker to generate pieces for screening of higher molecular weight proteins (e.g., FAK) and lower molecular weight proteins (e.g., MEK and GAPDH).”
as §4

SKOV3 cells = experiment: Boyden chamber chemotaxis/migration of SKOV3 cells; details: SKOV3
Protocol: A2780 (FIG. 10a) and SKOV3 (FIG. 10b) cells were incubated with the indicated concentrations of Å6 peptide for 30 min at 37° C. Aliquots representing 6,000 cells were placed on quadruplicate, CnI-coated filters (8 μm pores) in Boyden chambers and the cells allowed to migrate overnight in response to 10 ng/ml VEGF in NIH3T3-conditioned media containing the indicated concentrations of Å6. Upon completion of migration, the apical surfaces of the membranes were wiped clean and the migrating cells on the basal surface were stained with Geimsa stain and the cells present in representative fields of the membranes counted. Data represent the averages+/−standard deviations obtained from the replicate filters. […] This provides further confirmation that CD44 is the target for the Å6 peptide.
SKOV3 cells are harvested by trypsinization and washed once with RPMI−0.5% BSA. Next, the cells are re-suspended in RPMI+0.5% BSA @ 6E4/mL (6000 cells/100 μL). The peptide is pre-treated with 500 μL of cells added to 500 μL peptide NASAPPEE (2× concentration, final conc. at 100, 10, 1, 0.1, 0.01, 0.001 uM) and the mixture incubated 30 minutes at 37° C., under 5% CO2. The Boyden chamber is assembled by: Placing in the bottom chambers: 220 μL of serum/BSA free DMEM or NIH3T3CM+10 ng/ml VEGF or NIH3T3CM+10 ng/ml VEGF+peptide. Place 8 μm filters on the top of the bottom chambers. The 8 μm filters are coated with 1 mg/ml collagen I at 4° C. overnight, washed with PBS twice, air dry before use. Add 200 μL of cells with or without peptide pretreatment to the top of Boyden chamber. Note that the peptide is in both top and bottom chambers. Cells migrate overnight at 37° C., under 5% CO2 in incubator. Next, Boyden chambers are disassembled the and filters collected. The cells on the filters after collection are treated with −20° C. methanol for 3 minutes at room temperature and stained with 30% Geimsa for 7 minutes at room temperature, and washed with water twice. The filters are mounted on slides, air dried and the cells counted.
Cell numbers were obtained by counting the cells in four fields of filters using a 40× objective. The cells migrating into the bottom chambers were also counted as follows: a) 200 μL fluid in the bottom chamber was transferred to a well of 96-well plate; b) The plate was centrifuged at 1200 rpm for 5 minutes; c) 180 μL of supernatant was removed; d) The cell pellet was resuspended with the remaining 20 μL fluid and the cells counted using a hemocytometer. […] This compares favorably to the Å6 peptide which is effective between 5 μM and 100 nM.

In the case of “hyaluronic acid [HA, reference compound]”, the pPCKa/PKCa (PKCalpha) is reported as “appears to have enhanced”, the pERK/Erk (ERK 1/2) is reported as “increased” and the pFAK/FAK ratios (FAK) is reported as “reduced”. The “total MEK levels” value (MEK) was “appears to have decreased” and the pMEK/MEK (MEK; under all conditions) was “increased”.

With “NASAPPEE (peptide which potentiates the binding of CD44 polypeptide expressing cells to hyaluronic acid (HA)) [corresponds to amino acids 120-127 of CD44]” the “cell migration inhibition, lower end of effective concentration range” value (SKOV3 cells) was 1 nM and the “cell migration inhibition, upper end of effective concentration range” value (SKOV3 cells) was 100 µM.
